{
  "source": "ChEMBL document CHEMBL6182949",
  "about": "(J Med Chem, 2025)",
  "key": {"[1]": {"target": "T1, CYP2B6 (Homo sapiens, UniProt P20813)", "T1 sequence (P20813 whole entry)": "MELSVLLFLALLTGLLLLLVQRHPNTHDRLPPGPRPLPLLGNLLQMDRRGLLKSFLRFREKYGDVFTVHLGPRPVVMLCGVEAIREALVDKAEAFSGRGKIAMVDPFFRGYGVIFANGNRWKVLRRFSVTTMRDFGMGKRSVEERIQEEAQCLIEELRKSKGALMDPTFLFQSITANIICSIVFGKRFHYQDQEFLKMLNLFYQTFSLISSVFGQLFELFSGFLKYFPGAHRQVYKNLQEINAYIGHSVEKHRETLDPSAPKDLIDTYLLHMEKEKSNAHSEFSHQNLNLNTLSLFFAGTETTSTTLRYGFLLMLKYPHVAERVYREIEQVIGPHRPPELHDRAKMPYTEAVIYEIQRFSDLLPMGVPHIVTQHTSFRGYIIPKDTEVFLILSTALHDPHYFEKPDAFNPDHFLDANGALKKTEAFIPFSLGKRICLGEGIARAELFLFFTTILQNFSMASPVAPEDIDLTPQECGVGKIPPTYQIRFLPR", "assay": "Inhibition of CYP2B6 in human liver microsome using bupropion as substrate at 10 uM preincubated for 5 mins followed by NADPH addition and measured after 10 mins by LC-MS/MS analysis relative to control", "format": "ADME", "details": "human liver microsomes, probe bupropion, time 15 min"}, "[2]": {"assay": "Tmax in Beagle dog at 10 mg/kg, po measured up to 24 hrs by LC-MS/MS analysis", "format": "ADME, organism-based, Canis lupus familiaris", "details": "in vivo"}},
  "data": [
    {"smiles": "Cn1c(=O)n(C2CCC(=O)NC2=O)c2cccc(C#CCO[C@H]3CC[C@H](CN4CCC5(CC4)Cc4cc(NC(=O)c6coc7cccnc67)c(N6CCC(CO)CC6)cc4O5)CC3)c21", "note": "(some centres not stated)", "values": [
      {"measurement": "inhibition at 10 min, 10 µM", "setting": "[1]", "result": 0.13, "unit": "%"},
      {"measurement": "Tmax", "setting": "[2]", "result": 4, "unit": "h"}
    ]}
  ]
}
